These results are taken from patent US6620837B1, “Antithrombotic agents” (Eli Lilly and Company, priority 1999, dated 2003).

Molecules are shown by their SMILES. Where a name gives a salt, the structure may show the parent alone.

Data set [1] can be described thus: Volume of distribution (VD) after oral dosing, pharmacokinetic model. To be noted: VD=Clearance/K; Clearance=Dose/AUC following oral dosing; compounds of the invention. The format is in vivo, dog. From the text:
Many of the antithrombotic compounds disclosed in the prior art are lipophilic and, therefore, undergo high volumes of distribution from the plasma component and into the tissues. Since thrombin resides in the plasma, this tissue distribution is not preferred. […] Data in Table 1 below confirms that the compounds of the present invention have lower volumes of distribution and, therefore, better pharmacokinetic properties than their corresponding compounds of formula I in which R^d is hydrogen.
The Volume of Distribution (VD) was calculated according to the standard equation:
where Clearance=Dose (ug)/AUC (ug/ml) where AUC is the amount of drug present in plasma following oral dosing and is measured as the area under a curve of drug concentration versus time. K(h^−1) is the elimination rate constant.
Test compound is formulated immediately prior to dosing by dissolving in sterile 0.9 percent saline to a 5 mg/mL preparation. Dogs are given a single 2 mg/kg dose of test compound by oral gavage. Blood samples (4.5 mL) are taken from the cephalic vein at 0.25, 0.5, 0.75, 1, 2, 3, 4 and 6 hours after dosing. Samples are collected in citrated Vacutainer tubes and kept on ice prior to reduction to plasma by centrifugation. Plasma samples are analyzed by HPLC MS. Plasma concentration of test compound is recorded and used to calculate the pharmacokinetic parameters: elimination rate constant, Ke; total clearance, Clt; volume of distribution, VD; time of maximum plasma test compound concentration, Tmax; maximum concentration of test compound of Tmax, Cmax; plasma half-life, t0.5; and area under the curve, A.U.C.; fraction of test compound absorbed, F.

On to `O=C([O-])CCCOc1ccc(-c2sc3ccccc3c2Cc2ccc(OCCN3CCCC3)cc2)cc1C(=O)[O-].[Na+].[Na+]` [Example 2, 2-(3-Carboxypropoxy)-5-[3-[4-[2-(1-pyrrolidinyl)ethoxy]benzyl]benzo[b]thiophen-2-yl]benzoic Acid Disodium Salt], for which the melting point was above 250 °C. Moreover, in data set [1], the “VD” value is 0.46 L/kg.

Take `COC(=O)CCCOc1ccc(-c2sc3ccccc3c2Cc2ccc(OCCN3CCCC3)cc2)cc1C(N)=O` [Example 4, 2-(3-Carbomethoxypropoxy)-5-[3-[4-[2-(1-pyrrolidinyl)ethoxy]benzyl]benzo[b]thiophen-2-yl]benzamide Oxalate Salt]: the “VD” value in data set [1] worked out at 3.36 L/kg.

With `NC(=O)CCCOc1cc(-c2sc3ccccc3c2Cc2ccc(OCCN3CCCC3=O)cc2)ccc1OCCN1CCCC1` [Example 8, 2-[3-(4-Amino-4-oxobutoxy)-4-[2-(1-pyrrolidinyl)ethoxy]phenyl]-3-[4-[2-(2-oxopyrrolidin-1-yl)ethoxy]-benzyl]benzo[b]thiophene Oxalate], the “VD” value in data set [1] is 13.53 L/kg.

In the case of `O=C([O-])CCCOc1cc(-c2sc3ccccc3c2C(=O)c2ccc(OCCN3CCCC3=O)cc2)ccc1OCCN1CCCC1.[Li+]` [Example 11], the “VD” value in data set [1] turned out to be 5.13 L/kg.

For the molecule `O=C([O-])c1cc(-c2sc3ccccc3c2Cc2ccc(OCCN3CCCC3)cc2)ccc1OCCN1CCCC1.[Na+]` [Example 1, 2-[2-(1-Pyrrolidinyl)ethoxy]-5-[3-[4-[2-(1-pyrrolidinyl)ethoxy]benzyl]benzo[b]thiophen-2-yl]benzoic Acid Sodium Salt], the melting point is 253 to 255 °C (dec.). Further, the “VD” value in data set [1] stood at 1.27 L/kg.

What is called melting point is the temperature of the solid-liquid transition.
